We go through one compound from US6251882A, “Alkyl ketones as potent anti-cancer agents” (Parker Hughes Institute, priority 1999, dated 2001).

The test system of data set [1] is Molt-3 (T-lineage ALL). The data set is described as follows: MTT cytotoxicity assay, Molt-3. In kind it is cell-based, human. Conditions: MTT, 24-36 hours at 37° C., 0.1 to 250 μM. The procedure:
(§1) Cytotoxicity of various compounds against tumor cells was performed using the MTT (3-[4,5-[…]]-2,5-diphenyl tetrazolium bromide) assay (Boehringer Mannheim Corp., Indianapolis, Ind.). Unless otherwise specified, all cell lines were obtained from the American Type Culture Collection (ATCC). Briefly, exponentially growing cells were seeded into a 96-well plate at a density of 2.5×10^4 cells/well and incubated for 36 hours at 37° C. prior to drug exposure. On the day of treatment, culture medium was carefully aspirated from the wells and replaced with fresh medium containing the indicated compound at concentrations ranging from 0.1 to 250 μM. Triplicate wells were used for each treatment.
(§2) Human leukemic cell lines (NALM-6, MOLT-3) glioblastoma cells (U373) and human breast tumor cell lines (BT20 and MDA-MB-231) were obtained from the American Type Culture Collection and maintained as a continuous cell line in Dulbecco's modified Eagles's medium supplemented with 10% fetal bovine serum and antibiotics.
(§3) The cells were incubated with the various compounds for 24-36 hours at 37° C. in a humidified 5% CO2 atmosphere. To each well, 10 μl of MTT (0.5 mg/ml final concentration) was added and the plates were incubated at 37° C. for 4 hours to allow MTT to form formazan crystals by reacting with metabolically active cells. The formazan crystals were solubilized overnight at 37° C. in a solution containing 10% SDS in 0.01 M HCl. The absorbence of each well was measured in a microplate reader (Labsystems) at 540 nm and a reference wavelength of […]. To translate the OD540 values into the number of live cells in each well, the OD540 values were compared to those on standard OD540 --versus--cell number curves generated for each cell line. The percent survival was calculated using the formula: [formula]
(§4) The IC50 values were calculated by non-linear regression analysis and are shown below in Tables 1-6.

The test system of data set [2] is MOLT-3 cells. In words: Apoptosis induction, MOLT-3 cells. Format: cell-based. The settings on record: Homo sapiens, MOLT-3, 24 h; vs vehicle control (FIG. 3). On the procedure:
(§5) The ability of HI-131 to induce apoptosis cells was evaluated in human leukemia in NALM-6 cells and primary leukemic cells from 2 patients. Cells were treated with 50 μM compound HI-131 for 24 hours. After incubation, the cells were harvested and analyzed for apoptosis by in situ TUNNEL analysis and confocal laser scanning microscopy as described in Sudbeck et al., 1999, Clin Cancer Res., 5:1589-82. Controls were treated with vehicle alone.
(§6) Induction of apoptosis was further evaluated in primary leukemic cells and established NALM-6 and MOLT-3 cell lines following treatment with HI-131.

For data set [3], the system named is Nalm-6 (B-lineage ALL). In words: MTT cytotoxicity assay, Nalm-6. In kind it is cell-based. Conditions: Homo sapiens, 24-36 hours at 37° C., 0.1 to 250 μM. On the procedure:
as §1, §2, §3, §4

Data set [4] deals with NALM-6 cells. The data set is described as follows: Apoptosis induction, NALM-6 cells (in situ TUNNEL, confocal microscopy). In kind it is cell-based, human. The procedure: as §5, §6
For data set [5], the system named is primary leukemic cells. In words: Apoptosis induction, primary leukemic cells (in situ TUNNEL, confocal microscopy). In kind it is cell-based, human. On the procedure:
as §5, §6

Data set [6] concerns primary leukemia cells. In words: MTT cytotoxicity in primary cancer cells from six children with leukemia. In kind it is cell-based, human. Conditions: 0 to 50 μM, all six patients. The procedure: as §1
The cells were incubated with the various compounds for 24-36 hours at 37° C. in a humidified 5% CO2 atmosphere. […] The absorbence of each well was measured in a microplate reader (Labsystems) at 540 nm and a reference wavelength of 690 um. […] The percent survival was calculated using the formula: [formula]
The cytotoxicity of HI-131 against primary cancer cells was evaluated in leukemia cells taken from six children (FIG. 1A), using the MTT assay described for Example 3. […] Percent survival was calculated as described for Example 3 and plotted against the HI-131 concentration used in the experiment. […]

Data set [7] concerns PC-3 (prostate cancer). The data set is described as follows: MTT cytotoxicity assay, PC-3. The settings on record: 24-36 hours at 37° C., 0.1 to 250 μM. Format: cell-based. On the procedure: as §1, §3, §4
Background: Tetrazolium dyes change colour on reduction, which living cells bring about.

Molecules are shown by their SMILES.

Take `CCCCCCCCCCCCSC[C@H](NC(C)=O)C(=O)CCl` [HI-131, N-Ac-S-dodecyl-Cys chloromethyl ketone]: the IC50 was determined as 2300 nM in data set [1], 2000 nM in data set [3] and 22100 nM in data set [7]. Besides, the fold induction at 50 µM in data set [2] is ~20; in data set [4] (Homo sapiens, NALM-6, 24 h, vs vehicle control (FIG. 3)), ~20; in data set [5] (Homo sapiens, 24 h, typical, vs vehicle control (FIG. 3)) it was ~4. Also, the “apoptosis induction (TUNNEL/confocal), NALM-6” value in data set [4] (50 μM, 24 hours) is “greatly induced apoptosis”. Also, the “apoptosis induction (TUNNEL/confocal), primary leukemic cells” value in data set [5] (50 μM, 24 hours, 2 patients) is recorded as “greatly induced apoptosis”. Besides, the “rate of apoptosis, primary leukemic cell samples” value in data set [5] (all but one of the samples (FIG. 3)) is recorded as “increased dramatically”. The “cytotoxic effect in primary cancer cells” value in data set [6] is “dose dependent cytotoxic effect”.

What is called IC50 is the concentration at which inhibition is half-maximal. Low readings indicate greater potency, high ones weaker potency. A word on the fold induction: it is the ratio of treated to control signal.
